Holding throughout (type): in vivo
The subject of experiment [1] is green foxtail (Setaria viridis). The experiment can be described thus: Preemergence herbicidal activity, green foxtail. The settings on record: Rate of Application 0.3 Kg/Ha, examined after 12-17 days.
The test system of experiment [2] is soybean (Glycine max var. Winchester). The experiment can be described thus: Postemergence herbicidal activity, soybean. The settings on record: rate of application 0.3 Kg/Ha, rated after 12-17 days.
The test system of experiment [3] is morningglory (Ipomea lacunosa or Ipomea hederacea). The experiment can be described thus: Postemergence herbicidal activity, morningglory. The settings on record: rate of application 0.3 Kg/Ha, rated after 12-17 days.
Experiment [4] relates to field corn (Zea mays var. Pioneer 3732). The experiment can be described thus: Postemergence herbicidal activity, corn. The settings on record: rate of application 0.3 Kg/Ha, rated after 12-17 days.
Experiment [5] has the same test system. The experiment can be described thus: Preemergence herbicidal activity, corn. As to conditions: Rate of Application 0.3 Kg/Ha, examined after 12-17 days.
For experiment [6], the system named is Johnsongrass (Sorghum halepense). The experiment can be described thus: Preemergence herbicidal activity, johnsongrass. As to conditions: Rate of Application 0.3 Kg/Ha, examined after 12-17 days.
For experiment [7], the system named is blackgrass (Aloepecurus myosuroides). The experiment can be described thus: Postemergence herbicidal activity, blackgrass. The settings on record: rate of application 0.3 Kg/Ha, rated after 12-17 days.
The subject of experiment [8] is common chickweed (Stellaria media). In words: Preemergence herbicidal activity, chickweed. The settings on record: Rate of Application 0.3 Kg/Ha, examined after 12-17 days.
Experiment [9] deals with wheat (Triticum aestivum var. Lew). In words: Postemergence herbicidal activity, wheat. The settings on record: rate of application 0.3 Kg/Ha, rated after 12-17 days.
The test system of experiment [10] is velvetleaf (Abutilon theophrasti). The experiment can be described thus: Postemergence herbicidal activity, velvetleaf. The settings on record: rate of application 0.3 Kg/Ha, rated after 12-17 days.
Experiment [11] relates to morningglory (Ipomea lacunosa or Ipomea hederacea). The experiment can be described thus: Preemergence herbicidal activity, morningglory. As to conditions: Rate of Application 0.3 Kg/Ha, examined after 12-17 days.
Experiment [12] deals with Johnsongrass (Sorghum halepense). In words: Postemergence herbicidal activity, johnsongrass. As to conditions: rate of application 0.3 Kg/Ha, rated after 12-17 days.
The subject of experiment [13] is common cocklebur (Xanthium strumarium L.). The experiment can be described thus: Postemergence herbicidal activity, cocklebur. The settings on record: rate of application 0.3 Kg/Ha, rated after 12-17 days.
Experiment [14] relates to velvetleaf (Abutilon theophrasti). In words: Preemergence herbicidal activity, velvetleaf. As to conditions: Rate of Application 0.3 Kg/Ha, examined after 12-17 days.
In experiment [15] the test system is common chickweed (Stellaria media). The experiment can be described thus: Postemergence herbicidal activity, chickweed. The settings on record: rate of application 0.3 Kg/Ha, rated after 12-17 days.
Experiment [16] deals with green foxtail (Setaria viridis). In words: Postemergence herbicidal activity, green foxtail. The settings on record: rate of application 0.3 Kg/Ha, rated after 12-17 days.
Experiment [17] concerns soybean (Glycine max var. Winchester). In words: Preemergence herbicidal activity, soybean. As to conditions: Rate of Application 0.3 Kg/Ha, examined after 12-17 days.
Experiment [18] concerns common cocklebur (Xanthium strumarium L.). In words: Preemergence herbicidal activity, cocklebur. As to conditions: Rate of Application 0.3 Kg/Ha, examined after 12-17 days.
The test system of experiment [19] is wheat (Triticum aestivum var. Lew). The experiment can be described thus: Preemergence herbicidal activity, wheat. As to conditions: Rate of Application 0.3 Kg/Ha, examined after 12-17 days.
Experiment [20] deals with blackgrass (Aloepecurus myosuroides). The experiment can be described thus: Preemergence herbicidal activity, blackgrass. The settings on record: Rate of Application 0.3 Kg/Ha, examined after 12-17 days.

Turning to `CCOC(=O)c1cc2cccc(-n3c(=O)cc(C(F)(F)F)n(C)c3=O)c2o1` [Compound 267], the “PREEMERGENCE HERBICIDAL ACTIVITY (% CONTROL) SETVI” value in experiment [1] is recorded as 5%. Moreover, the “Postemergence herbicidal activity (% control) SOY” value in [2] was 50%. Further, the “Postemergence herbicidal activity (% control) IPOSS” value in experiment [3] came to 40%. Further, the “Postemergence herbicidal activity (% control) CRN” value in experiment [4] was determined as 50%. For the same compound, in experiment [5], the “PREEMERGENCE HERBICIDAL ACTIVITY (% CONTROL) CRN” value was 20%. In [6], the “PREEMERGENCE HERBICIDAL ACTIVITY (% CONTROL) SORHA” value came to 0%. In addition, in experiment [7], the “Postemergence herbicidal activity (% control) ALOMY” value was 20%. For the same compound, in experiment [8], the “PREEMERGENCE HERBICIDAL ACTIVITY (% CONTROL) STEME” value came to 0%. In experiment [9], the “Postemergence herbicidal activity (% control) WHT” value was found to be 15%. In [10], the “Postemergence herbicidal activity (% control) ABUTH” value is recorded as 80%. Besides, in [11], the “PREEMERGENCE HERBICIDAL ACTIVITY (% CONTROL) IPOSS” value was 10%. For the same compound, the “Postemergence herbicidal activity (% control) SORHA” value in experiment [12] amounted to 20%. In experiment [13], the “Postemergence herbicidal activity (% control) XANPE” value was 10%. In [14], the “PREEMERGENCE HERBICIDAL ACTIVITY (% CONTROL) ABUTH” value stood at 10%. Also, in experiment [15], the “Postemergence herbicidal activity (% control) STEME” value is 10%. In addition, the “Postemergence herbicidal activity (% control) SETVI” value in experiment [16] was determined as 30%. Further, the “PREEMERGENCE HERBICIDAL ACTIVITY (% CONTROL) SOY” value in experiment [17] is listed as 0%. Moreover, the “PREEMERGENCE HERBICIDAL ACTIVITY (% CONTROL) XANPE” value in [18] came to 50%. Also, in experiment [19], the “PREEMERGENCE HERBICIDAL ACTIVITY (% CONTROL) WHT” value came out at 10%. Also, the “PREEMERGENCE HERBICIDAL ACTIVITY (% CONTROL) ALOMY” value in [20] came to 50%.
Consider `Cn1c(C(F)(F)F)cc(=O)n(-c2ccc(Cl)c3cc(NC(=O)OC(C)(C)C)oc23)c1=O` [Compound 272], for which the “PREEMERGENCE HERBICIDAL ACTIVITY (% CONTROL) SETVI” value in experiment [1] is reported as 90%. Besides, the “Postemergence herbicidal activity (% control) SOY” value in experiment [2] turned out to be 50%. For the same compound, the “Postemergence herbicidal activity (% control) IPOSS” value in experiment [3] stood at 60%. Besides, the “Postemergence herbicidal activity (% control) CRN” value in experiment [4] amounted to 45%. For the same compound, the “PREEMERGENCE HERBICIDAL ACTIVITY (% CONTROL) CRN” value in experiment [5] is listed as 20%. Besides, the “PREEMERGENCE HERBICIDAL ACTIVITY (% CONTROL) SORHA” value in experiment [6] was 60%. The “Postemergence herbicidal activity (% control) ALOMY” value in experiment [7] amounted to 20%. Moreover, the “PREEMERGENCE HERBICIDAL ACTIVITY (% CONTROL) STEME” value in [8] was found to be 100%. For the same compound, in [9], the “Postemergence herbicidal activity (% control) WHT” value was found to be 30%. Besides, the “Postemergence herbicidal activity (% control) ABUTH” value in experiment [10] is 100%. Moreover, in experiment [11], the “PREEMERGENCE HERBICIDAL ACTIVITY (% CONTROL) IPOSS” value was 70%. The “Postemergence herbicidal activity (% control) SORHA” value in [12] is given as 40%. The “Postemergence herbicidal activity (% control) XANPE” value in experiment [13] worked out at 50%. Moreover, the “PREEMERGENCE HERBICIDAL ACTIVITY (% CONTROL) ABUTH” value in [14] is 100%. For the same compound, the “Postemergence herbicidal activity (% control) STEME” value in [15] came to 50%. Also, the “Postemergence herbicidal activity (% control) SETVI” value in [16] was 70%. Moreover, the “PREEMERGENCE HERBICIDAL ACTIVITY (% CONTROL) SOY” value in [17] stood at 20%. In addition, the “PREEMERGENCE HERBICIDAL ACTIVITY (% CONTROL) XANPE” value in experiment [18] worked out at 20%. In addition, the “PREEMERGENCE HERBICIDAL ACTIVITY (% CONTROL) WHT” value in experiment [19] was 0%. The “PREEMERGENCE HERBICIDAL ACTIVITY (% CONTROL) ALOMY” value in [20] is 70%.
Turning to `Cn1c(C(F)(F)F)cc(=O)n(-c2c(F)cc(Cl)c3cc(C(N)=O)oc23)c1=O` [Compound 273], the “PREEMERGENCE HERBICIDAL ACTIVITY (% CONTROL) SETVI” value in [1] amounted to 100%. Besides, the “Postemergence herbicidal activity (% control) SOY” value in experiment [2] came out at 95%. Moreover, in experiment [3], the “Postemergence herbicidal activity (% control) IPOSS” value is on record as 100%. Further, the “Postemergence herbicidal activity (% control) CRN” value in experiment [4] is 95%. Besides, in experiment [5], the “PREEMERGENCE HERBICIDAL ACTIVITY (% CONTROL) CRN” value was determined as 90%. The “PREEMERGENCE HERBICIDAL ACTIVITY (% CONTROL) SORHA” value in experiment [6] was determined as 100%. Further, the “Postemergence herbicidal activity (% control) ALOMY” value in [7] came out at 80%. The “PREEMERGENCE HERBICIDAL ACTIVITY (% CONTROL) STEME” value in [8] came out at 100%. Further, in experiment [9], the “Postemergence herbicidal activity (% control) WHT” value was 60%. In experiment [10], the “Postemergence herbicidal activity (% control) ABUTH” value is 100%. Moreover, in experiment [11], the “PREEMERGENCE HERBICIDAL ACTIVITY (% CONTROL) IPOSS” value stood at 100%. In addition, in [12], the “Postemergence herbicidal activity (% control) SORHA” value is recorded as 100%. For the same compound, in experiment [13], the “Postemergence herbicidal activity (% control) XANPE” value stood at 100%. For the same compound, the “PREEMERGENCE HERBICIDAL ACTIVITY (% CONTROL) ABUTH” value in [14] amounted to 100%. Moreover, in experiment [15], the “Postemergence herbicidal activity (% control) STEME” value is recorded as 90%. Besides, the “Postemergence herbicidal activity (% control) SETVI” value in [16] was 100%. Besides, in [17], the “PREEMERGENCE HERBICIDAL ACTIVITY (% CONTROL) SOY” value was found to be 100%. Further, the “PREEMERGENCE HERBICIDAL ACTIVITY (% CONTROL) XANPE” value in experiment [18] was found to be 100%. In addition, the “PREEMERGENCE HERBICIDAL ACTIVITY (% CONTROL) WHT” value in experiment [19] worked out at 80%. Besides, the “PREEMERGENCE HERBICIDAL ACTIVITY (% CONTROL) ALOMY” value in [20] turned out to be 90%.

For the origin of these results see patent publication US6352958B1, “Cycloimido-substituted benzofused heterocyclic herbicides” (FMC Corporation, priority 1997, dated 2002).
